In ChEMBL document CHEMBL5291721, “A preclinical secondary pharmacology resource illuminates target-adverse drug reaction associations of marketed drugs” (Nat Commun, 2023):
“And” between values parts separate entries of the source, which are not always exact repeats. Identical values can stand only once.

Columns and labels:
Histamine H2 receptor = Histamine H2 receptor (Homo sapiens, UniProt P25021); format: functional, cell-based
Thromboxane A2 receptor [1] = target: T1, Thromboxane A2 receptor (Homo sapiens, UniProt P21731)
T1 sequence (P21731 whole entry): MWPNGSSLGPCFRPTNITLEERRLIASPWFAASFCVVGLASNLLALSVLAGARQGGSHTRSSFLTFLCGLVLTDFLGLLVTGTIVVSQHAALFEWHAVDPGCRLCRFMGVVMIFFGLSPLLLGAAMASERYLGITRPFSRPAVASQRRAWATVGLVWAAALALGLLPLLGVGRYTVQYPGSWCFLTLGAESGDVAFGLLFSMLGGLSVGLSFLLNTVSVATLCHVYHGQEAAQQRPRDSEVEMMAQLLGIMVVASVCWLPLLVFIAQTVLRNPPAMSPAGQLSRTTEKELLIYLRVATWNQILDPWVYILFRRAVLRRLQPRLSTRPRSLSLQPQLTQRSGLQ

Histamine H3 receptor [2] = target: T2, Histamine H3 receptor (Homo sapiens, UniProt Q9Y5N1)
T2 sequence (Q9Y5N1 whole entry): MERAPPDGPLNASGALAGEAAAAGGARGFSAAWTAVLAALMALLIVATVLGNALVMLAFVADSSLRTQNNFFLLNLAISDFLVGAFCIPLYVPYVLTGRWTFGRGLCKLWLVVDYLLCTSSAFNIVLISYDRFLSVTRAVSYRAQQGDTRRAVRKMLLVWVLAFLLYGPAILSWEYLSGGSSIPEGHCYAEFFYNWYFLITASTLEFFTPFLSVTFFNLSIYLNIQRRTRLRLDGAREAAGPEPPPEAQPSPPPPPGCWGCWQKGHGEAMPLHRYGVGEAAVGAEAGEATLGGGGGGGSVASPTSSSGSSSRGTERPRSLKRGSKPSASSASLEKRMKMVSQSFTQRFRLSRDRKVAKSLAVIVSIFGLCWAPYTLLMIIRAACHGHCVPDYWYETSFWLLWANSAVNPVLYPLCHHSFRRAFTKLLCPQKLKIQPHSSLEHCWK

[3] = target: T3, 5-hydroxytryptamine receptor 1A (Homo sapiens, UniProt P08908); format: functional, cell-based
T3 sequence (P08908 whole entry): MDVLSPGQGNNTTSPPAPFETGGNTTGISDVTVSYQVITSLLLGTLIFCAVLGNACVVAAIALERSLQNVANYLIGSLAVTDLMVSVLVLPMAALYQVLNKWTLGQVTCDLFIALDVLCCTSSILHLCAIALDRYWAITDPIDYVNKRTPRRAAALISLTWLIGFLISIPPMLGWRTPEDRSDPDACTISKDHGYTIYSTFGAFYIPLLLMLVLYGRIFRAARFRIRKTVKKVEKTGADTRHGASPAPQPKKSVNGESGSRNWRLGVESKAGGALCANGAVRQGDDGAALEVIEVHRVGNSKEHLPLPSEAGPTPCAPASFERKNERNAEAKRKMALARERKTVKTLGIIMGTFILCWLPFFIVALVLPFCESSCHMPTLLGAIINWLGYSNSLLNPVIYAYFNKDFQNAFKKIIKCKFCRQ

[4] = target: 5-hydroxytryptamine receptor 2B (Homo sapiens, UniProt P41595); format: functional, cell-based
Chain of 5-hydroxytryptamine receptor 2B (P41595 whole entry): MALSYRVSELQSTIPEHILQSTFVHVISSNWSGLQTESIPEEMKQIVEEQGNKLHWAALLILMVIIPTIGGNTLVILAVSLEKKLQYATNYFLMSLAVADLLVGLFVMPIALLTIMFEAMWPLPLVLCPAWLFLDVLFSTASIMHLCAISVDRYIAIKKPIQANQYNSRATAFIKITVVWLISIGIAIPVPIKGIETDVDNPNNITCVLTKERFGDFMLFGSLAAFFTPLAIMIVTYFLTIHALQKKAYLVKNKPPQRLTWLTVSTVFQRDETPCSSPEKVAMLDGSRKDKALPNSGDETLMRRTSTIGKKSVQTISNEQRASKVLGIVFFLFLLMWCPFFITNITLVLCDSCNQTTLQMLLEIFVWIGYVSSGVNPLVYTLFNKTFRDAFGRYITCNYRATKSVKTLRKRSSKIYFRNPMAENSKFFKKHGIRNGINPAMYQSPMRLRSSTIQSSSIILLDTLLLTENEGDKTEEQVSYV

[5] = target: T4, Alpha-2B adrenergic receptor (Homo sapiens, UniProt P18089)
T4 sequence (P18089 whole entry): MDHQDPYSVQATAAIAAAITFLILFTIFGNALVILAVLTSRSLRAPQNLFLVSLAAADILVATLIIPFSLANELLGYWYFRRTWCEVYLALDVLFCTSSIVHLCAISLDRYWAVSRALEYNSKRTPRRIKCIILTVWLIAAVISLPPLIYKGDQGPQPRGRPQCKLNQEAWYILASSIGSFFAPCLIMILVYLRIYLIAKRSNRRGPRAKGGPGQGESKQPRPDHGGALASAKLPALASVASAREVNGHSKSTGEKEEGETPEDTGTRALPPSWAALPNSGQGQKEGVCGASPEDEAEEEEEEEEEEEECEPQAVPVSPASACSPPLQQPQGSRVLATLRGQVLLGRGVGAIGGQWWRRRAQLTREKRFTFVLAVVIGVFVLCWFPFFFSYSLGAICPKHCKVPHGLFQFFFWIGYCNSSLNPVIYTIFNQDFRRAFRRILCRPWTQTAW

[6] = target: T5, Muscarinic acetylcholine receptor M1 (Homo sapiens, UniProt P11229); format: functional
T5 sequence (P11229 whole entry): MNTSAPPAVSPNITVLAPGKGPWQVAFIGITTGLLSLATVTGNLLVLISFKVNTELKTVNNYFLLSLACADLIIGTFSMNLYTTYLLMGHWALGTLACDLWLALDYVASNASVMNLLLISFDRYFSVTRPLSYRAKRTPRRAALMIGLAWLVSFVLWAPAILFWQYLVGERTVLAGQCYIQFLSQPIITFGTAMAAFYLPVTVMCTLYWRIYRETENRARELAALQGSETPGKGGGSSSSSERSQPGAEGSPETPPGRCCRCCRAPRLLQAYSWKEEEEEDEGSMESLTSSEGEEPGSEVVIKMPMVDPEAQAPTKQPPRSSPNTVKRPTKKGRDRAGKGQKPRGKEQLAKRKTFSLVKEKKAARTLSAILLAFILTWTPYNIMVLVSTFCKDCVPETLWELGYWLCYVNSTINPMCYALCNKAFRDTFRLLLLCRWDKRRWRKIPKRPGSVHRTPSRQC

[7] = target: 5-hydroxytryptamine receptor 2A (Homo sapiens, UniProt P28223); format: functional, cell-based
Chain of 5-hydroxytryptamine receptor 2A (P28223 whole entry): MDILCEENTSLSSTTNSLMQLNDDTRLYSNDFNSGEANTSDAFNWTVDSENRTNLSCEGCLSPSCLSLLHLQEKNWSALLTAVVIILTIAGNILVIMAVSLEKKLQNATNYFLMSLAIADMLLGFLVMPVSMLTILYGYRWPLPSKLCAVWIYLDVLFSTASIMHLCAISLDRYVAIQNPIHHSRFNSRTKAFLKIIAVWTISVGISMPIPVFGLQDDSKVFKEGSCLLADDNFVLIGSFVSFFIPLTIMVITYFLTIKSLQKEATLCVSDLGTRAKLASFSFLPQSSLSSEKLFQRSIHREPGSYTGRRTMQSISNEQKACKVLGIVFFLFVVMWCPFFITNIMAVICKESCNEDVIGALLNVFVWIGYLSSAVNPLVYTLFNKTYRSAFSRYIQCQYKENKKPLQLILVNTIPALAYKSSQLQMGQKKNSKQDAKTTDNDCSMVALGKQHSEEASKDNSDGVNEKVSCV

[8] = target: 3',5'-cyclic-AMP phosphodiesterase 4A (Homo sapiens, UniProt P27815); format: functional
Chain of 3',5'-cyclic-AMP phosphodiesterase 4A (P27815 whole entry): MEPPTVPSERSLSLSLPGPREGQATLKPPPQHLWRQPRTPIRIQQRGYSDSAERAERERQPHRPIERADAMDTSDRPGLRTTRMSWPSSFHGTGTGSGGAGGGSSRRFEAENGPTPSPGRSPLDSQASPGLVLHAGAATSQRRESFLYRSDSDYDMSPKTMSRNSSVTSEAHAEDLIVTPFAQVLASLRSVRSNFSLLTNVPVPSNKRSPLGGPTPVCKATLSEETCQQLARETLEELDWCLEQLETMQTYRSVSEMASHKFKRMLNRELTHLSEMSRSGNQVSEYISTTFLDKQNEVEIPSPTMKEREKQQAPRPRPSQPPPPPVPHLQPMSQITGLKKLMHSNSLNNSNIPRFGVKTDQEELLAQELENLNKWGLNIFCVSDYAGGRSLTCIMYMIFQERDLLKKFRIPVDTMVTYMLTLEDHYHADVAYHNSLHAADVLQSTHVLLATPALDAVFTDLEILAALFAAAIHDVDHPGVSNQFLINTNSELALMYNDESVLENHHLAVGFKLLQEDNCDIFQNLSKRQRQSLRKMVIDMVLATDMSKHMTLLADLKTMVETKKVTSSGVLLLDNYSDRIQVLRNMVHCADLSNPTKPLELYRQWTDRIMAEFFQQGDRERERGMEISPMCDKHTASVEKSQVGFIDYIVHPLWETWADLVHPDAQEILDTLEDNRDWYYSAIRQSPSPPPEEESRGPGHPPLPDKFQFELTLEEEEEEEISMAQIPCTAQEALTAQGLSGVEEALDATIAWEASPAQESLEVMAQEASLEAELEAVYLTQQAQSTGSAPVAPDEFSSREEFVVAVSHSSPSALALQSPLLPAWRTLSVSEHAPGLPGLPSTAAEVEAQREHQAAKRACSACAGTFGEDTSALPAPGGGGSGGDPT

Histamine H3 receptor [9] = target: T2, Histamine H3 receptor; remark: listed apart in the source
[10] = target: T6, Muscarinic acetylcholine receptor M2 (Homo sapiens, UniProt P08172)
T6 sequence (P08172 whole entry): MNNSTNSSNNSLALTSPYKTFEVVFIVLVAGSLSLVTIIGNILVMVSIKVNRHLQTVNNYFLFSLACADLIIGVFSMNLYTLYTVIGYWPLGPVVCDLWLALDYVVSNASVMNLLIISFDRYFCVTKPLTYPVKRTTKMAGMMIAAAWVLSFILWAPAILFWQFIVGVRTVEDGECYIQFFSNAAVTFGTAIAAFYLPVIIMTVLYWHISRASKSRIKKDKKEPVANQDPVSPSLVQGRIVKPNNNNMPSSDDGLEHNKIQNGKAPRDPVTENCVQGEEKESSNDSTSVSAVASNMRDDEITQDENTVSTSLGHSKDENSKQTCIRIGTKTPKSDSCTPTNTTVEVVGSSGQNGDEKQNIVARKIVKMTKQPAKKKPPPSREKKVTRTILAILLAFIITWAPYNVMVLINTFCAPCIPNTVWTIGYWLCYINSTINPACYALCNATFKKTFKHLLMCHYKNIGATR

Thromboxane A2 receptor [11] = target: T1, Thromboxane A2 receptor; format: functional, cell-based
Acetylcholinesterase = Acetylcholinesterase (Homo sapiens, UniProt P22303); format: functional
Chain of Acetylcholinesterase (P22303 whole entry): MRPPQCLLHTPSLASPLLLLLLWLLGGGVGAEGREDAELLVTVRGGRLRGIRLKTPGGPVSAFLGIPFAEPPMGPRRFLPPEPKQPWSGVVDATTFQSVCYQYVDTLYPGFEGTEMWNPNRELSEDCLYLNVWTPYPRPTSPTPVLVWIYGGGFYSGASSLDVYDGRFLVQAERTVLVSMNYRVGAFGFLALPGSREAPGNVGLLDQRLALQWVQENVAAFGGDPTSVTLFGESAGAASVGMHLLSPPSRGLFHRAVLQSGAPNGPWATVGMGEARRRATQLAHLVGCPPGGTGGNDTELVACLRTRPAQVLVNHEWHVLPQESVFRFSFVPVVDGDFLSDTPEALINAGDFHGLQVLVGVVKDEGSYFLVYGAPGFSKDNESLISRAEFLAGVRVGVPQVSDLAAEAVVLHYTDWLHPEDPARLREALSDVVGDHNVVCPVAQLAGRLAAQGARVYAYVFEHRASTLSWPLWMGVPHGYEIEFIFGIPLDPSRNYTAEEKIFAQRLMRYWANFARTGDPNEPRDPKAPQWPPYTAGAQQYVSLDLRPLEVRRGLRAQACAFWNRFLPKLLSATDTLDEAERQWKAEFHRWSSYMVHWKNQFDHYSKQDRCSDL
Further: assay procedure not described here.

Chain of Histamine H2 receptor (P25021 whole entry): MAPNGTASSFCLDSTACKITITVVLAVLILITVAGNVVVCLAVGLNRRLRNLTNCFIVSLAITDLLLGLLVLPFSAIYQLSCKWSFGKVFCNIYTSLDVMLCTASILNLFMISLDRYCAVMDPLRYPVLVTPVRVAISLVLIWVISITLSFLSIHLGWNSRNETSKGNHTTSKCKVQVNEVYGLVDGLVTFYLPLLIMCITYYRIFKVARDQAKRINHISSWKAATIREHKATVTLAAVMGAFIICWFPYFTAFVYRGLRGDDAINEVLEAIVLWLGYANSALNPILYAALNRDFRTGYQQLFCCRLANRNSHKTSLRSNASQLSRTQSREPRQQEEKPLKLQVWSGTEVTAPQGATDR

Compound	AC50 (Histamine H2 receptor) [µM]	AC50 (Thromboxane A2 receptor [1]) [µM]	AC50 (Histamine H3 receptor [2])	AC50 [3] [µM]	AC50 [4] [µM]	AC50 [5] [µM]	AC50 [6] [µM]	AC50 [7] [µM]	AC50 [8] [µM]	AC50 (Histamine H3 receptor [9]) [µM]	AC50 [10] [µM]	AC50 (Thromboxane A2 receptor [11]) [µM]	AC50 (Acetylcholinesterase) [µM]
NS(=O)(=O)c1cc2c(cc1Cl)NCNS2(=O)=O [HYDROCHLOROTHIAZIDE]	> 10	> 30	> 10 µM	> 10	–	–	–	–	–	–	–	–	–
CC(=O)OCC(=O)[C@@]1(O)CC[C@H]2[C@@H]3CCC4=CC(=O)CC[C@]4(C)[C@H]3C(=O)C[C@@]21C [CORTISONE ACETATE]	> 30	–	–	> 30	> 30	–	–	–	–	–	–	–	–
NC1=NC(=O)C(c2ccccc2)O1 (stereo unspecified) [PEMOLINE]	> 10	> 30	> 10 µM	> 10	–	–	–	–	–	–	–	–	–
CCN(CC)CCNC(=O)c1cc(Cl)c(N)cc1OC [METOCLOPRAMIDE]	> 10	> 30	> 10 µM	> 10	–	–	–	–	–	–	–	–	–
CCc1nn(CCCN2CCN(c3cccc(Cl)c3)CC2)c(=O)n1CCOc1ccccc1 [NEFAZODONE]	–	23.9	–	–	–	0.34	> 10	–	–	–	–	–	–
O=C(O)c1cc(-c2ccc(F)cc2F)ccc1O [DIFLUNISAL]	> 30	> 10	–	> 10	–	–	–	–	–	–	–	–	–
CC(N)Cc1ccccc1 (stereo unspecified) [AMPHETAMINE]	> 10	> 30	> 30 µM	> 30	–	–	> 30	> 30	–	–	–	–	–
C#C[C@]1(O)CC[C@H]2[C@@H]3CCc4cc(O)ccc4[C@H]3CC[C@@]21C [ETHINYL ESTRADIOL]	> 10	15	> 10 µM	–	> 30	–	–	–	20.1	> 30	> 30	> 30	> 30
CCC(=O)O[C@H]1[C@H](O[C@@H]2[C@@H](C)[C@H](O[C@H]3C[C@@](C)(OC)[C@@H](O)[C@H](C)O3)[C@@H](C)C(=O)O[C@H](CC)[C@@](C)(O)[C@H](O)[C@@H](C)C(=O)[C@H](C)C[C@@]2(C)O)O[C@H](C)C[C@@H]1N(C)C [ERYTHROMYCIN PROPIONATE]	–	–	–	–	> 30	–	–	–	> 30	> 30	> 30	> 30	> 30
CS(=O)(=O)c1ccc([C@@H](O)[C@@H](CO)NC(=O)C(Cl)Cl)cc1 [THIAMPHENICOL]	> 30	> 30	> 30 µM	> 30	> 30	–	–	–	> 30	> 30	> 30	> 30	> 30
CC(C)(C(=O)c1cccnc1)c1cccnc1 [METYRAPONE]	> 10	> 10	–	> 10	–	–	–	–	–	–	–	–	–
CC(C)NNC(=O)c1ccncc1 [IPRONIAZID]	–	–	> 30 µM	> 30	–	–	–	–	–	–	–	–	–
CC[C@H](C)C(=O)O[C@H]1C[C@H](O)C=C2C=C[C@H](C)[C@H](CC[C@@H](O)C[C@@H](O)CC(=O)O)[C@H]21 [PRAVASTATIN]	> 10	–	> 30 µM	> 30	–	–	–	–	–	–	–	–	–
CO/N=C(\C(=O)N[C@@H]1C(=O)N2C(C(=O)[O-])=C(C[N+]3(C)CCCC3)CS[C@H]12)c1csc(N)n1	> 30	> 30	> 30 µM and 97 µM	> 300	–	–	> 300	> 30	–	–	–	–	–
CCOC(=O)[C@H](CCc1ccccc1)N[C@@H](C)C(=O)N1CCC[C@H]1C(=O)O	> 10	> 30	> 10 µM	> 10	–	–	–	–	–	–	–	–	–
CN1CCCC(n2nc(Cc3ccc(Cl)cc3)c3ccccc3c2=O)CC1 (stereo unspecified) [AZELASTINE]	–	–	16 µM	> 30	–	3.8	–	4.6	–	–	–	–	–
CCC[C@@H]1C[C@@H](C(=O)N[C@@H]([C@H]2O[C@H](SC)[C@H](O)[C@@H](O)[C@H]2O)[C@H](C)Cl)N(C)C1 [CLINDAMYCIN]	> 10	> 30	> 10 µM	> 10	–	–	–	–	–	–	–	–	–
COC(=O)C1=C(C)NC(C)=C(C(=O)OCC(C)C)C1c1ccccc1[N+](=O)[O-] (stereo unspecified) [NISOLDIPINE]	> 30	> 10	–	> 10	–	–	–	–	–	–	–	–	–
C[C@H]1O[C@H](O[C@H]2[C@H](O)[C@@H](O)[C@@H](O[C@H]3[C@H](O)[C@@H](O)C(O)O[C@@H]3CO)O[C@@H]2CO)[C@H](O)[C@@H](O)[C@@H]1N[C@H]1C=C(CO)[C@@H](O)[C@H](O)[C@H]1O (stereo partly specified) [ACARBOSE]	> 10	> 30	> 30 µM	> 10	> 30	–	–	–	5.08	> 30	> 30	> 30	> 30
NC[C@H]1O[C@H](O[C@H]2[C@H](O)[C@@H](O[C@H]3O[C@H](CO)[C@@H](O)[C@H](N)[C@H]3O)[C@H](N)C[C@@H]2N)[C@H](O)[C@@H](O)[C@@H]1O [KANAMYCIN]	> 30	> 10	–	> 10	–	–	–	–	–	–	–	–	–
CCc1ccc(CCOc2ccc(CC3SC(=O)NC3=O)cc2)nc1 (stereo unspecified) [PIOGLITAZONE]	> 10	> 30	–	> 10	> 30	–	–	–	> 10	> 3	> 30	> 30	> 30
C[C@H]1C[C@@H]2[C@H]([C@@H](O)C[C@@]3(C)[C@H]2CC[C@]3(O)C(=O)CO)[C@@]2(C)C=CC(=O)C=C12 [METHYLPREDNISOLONE]	> 30	> 10	–	> 10	–	–	–	–	–	–	–	–	–
CNC(=O)c1cc(Oc2ccc(NC(=O)Nc3ccc(Cl)c(C(F)(F)F)c3)cc2)ccn1 [SORAFENIB]	> 30	16.3	> 30 µM	–	–	> 30	> 30	–	–	–	–	–	–
NC(N)=Nc1nc(CSCCC(N)=NS(N)(=O)=O)cs1 [FAMOTIDINE]	> 10	> 30	> 10 µM	> 10	–	–	–	–	–	–	–	–	–
Cc1cccc(C)c1OCC(C)N (stereo unspecified) [MEXILETINE]	> 30	–	> 30 µM	–	–	–	–	–	–	–	–	–	–
CN1CCCC(CN2c3ccccc3Sc3ccccc32)C1 (stereo unspecified) [MEPAZINE]	–	–	–	–	> 30	–	–	–	> 30	22.3	0.347	> 30	> 30
NC[C@H]1CC[C@H](C(=O)O)CC1 [TRANEXAMIC ACID]	> 30	> 10	–	> 10	–	–	–	–	–	–	–	–	–
